Measurements published in US11155544B2, “Heterocycle comprising tyrosine kinase inhibitors” (Principia Biopharma Inc., priority 2015, dated 2021).

Assays:
CD69 expression = assay: Blockade of CD69 Expression in Human Whole Blood Samples; type: cell-based; settings: 30 minutes pre-incubation, activation with anti-IgM, cells gated on CD20, CD69 by FACS
Protocol: Activation of the B cell receptor leads to increased BTK activity, calcium mobilization and B cell activation (see Honigberg L. A., et. al., Proc Natl Acad Sci USA. 107:13075-80. 2010). […] CD69 was expressed following B cell activation as a measure of BTK activity in whole blood. Aliquots of whole blood were pre-incubated with serial dilutions of test compound for 30 minutes followed by activation with anti-IgM (goat Fab′ 2, 50 μg/ml). Samples were incubated overnight at 37° C. and then stained with PE labeled anti-CD20 and APC labeled anti-CD69 (BD Pharmingen) for 30 minutes according to the manufacturer's directions. Whole blood was then lysed and cells gated on CD20 expression were quantified for CD 69 expression by FACS. The percent inhibition was calculated based on a DMSO control for no inhibition and plotted as a function of test compound concentration from which an IC50 value was calculated.

human recombinant BTK = human recombinant BTK (Homo sapiens (Human), UniProt Q06187); assay: BTK Enzymatic Activity Assay (Caliper-based kinase assay); type: biochemical; settings: human recombinant BTK (0.5 nM), ATP (16 μM), peptide substrate (1 μM), room temperature for 3 h
Protocol: A Caliper-based kinase assay (Caliper Life Sciences, Hopkinton, Mass.) was used to measure inhibition of BTK kinase activity of a compound of the present disclosure. Serial dilutions of test compounds were incubated with human recombinant BTK (0.5 nM), ATP (16 μM) and a phosphoacceptor peptide substrate FAM-GEEPLYWSFPAKKK-NH2 (1 μM) at room temperature for 3 h. The reaction was then terminated with EDTA, final concentration 20 mM and the phosphorylated reaction product was quantified on a Caliper Desktop Profiler (Caliper LabChip 3000). Percent inhibition was calculated for each compound dilution and the concentration that produced 50% inhibition was calculated. This value is presented as the IC50.

Sequence of human recombinant BTK (Q06187 whole entry): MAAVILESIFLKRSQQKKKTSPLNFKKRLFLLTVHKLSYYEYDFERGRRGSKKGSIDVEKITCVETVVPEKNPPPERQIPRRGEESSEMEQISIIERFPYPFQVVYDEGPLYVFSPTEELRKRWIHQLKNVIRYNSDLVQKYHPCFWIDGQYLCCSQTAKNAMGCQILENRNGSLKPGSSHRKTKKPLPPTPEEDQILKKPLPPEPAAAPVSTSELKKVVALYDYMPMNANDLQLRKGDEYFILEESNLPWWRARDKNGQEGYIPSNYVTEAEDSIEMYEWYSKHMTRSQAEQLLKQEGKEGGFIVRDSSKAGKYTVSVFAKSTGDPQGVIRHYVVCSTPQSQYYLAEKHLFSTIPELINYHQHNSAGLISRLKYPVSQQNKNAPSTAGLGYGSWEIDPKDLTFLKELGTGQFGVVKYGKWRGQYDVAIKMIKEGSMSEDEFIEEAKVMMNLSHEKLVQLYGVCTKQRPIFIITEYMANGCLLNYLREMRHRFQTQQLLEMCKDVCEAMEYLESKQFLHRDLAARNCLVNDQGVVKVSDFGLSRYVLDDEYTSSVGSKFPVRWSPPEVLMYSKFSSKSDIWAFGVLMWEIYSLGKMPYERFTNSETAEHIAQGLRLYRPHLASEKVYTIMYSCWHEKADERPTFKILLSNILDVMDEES

IC50 (CD69 expression)	IC50 (human recombinant BTK)	Molecule
165 nM	2.9 nM	CC(C)(/C=C(\C#N)C(=O)N1CCC[C@H]1Cc1nc(-c2ccc(Oc3ccccc3)cc2F)c2c(N)nccn12)N1CCOCC1 [Compound 17, (S)-2-(2-((8-amino-1-(2-fluoro-4-phenoxyphenyl)imidazo[1,5-a]pyrazin-3-yl)methyl)pyrrolidine-1-carbonyl)-4-methyl-4-morpholinopent-2-enenitrile]
130 nM	4.3 nM	CN(C1COC1)C(C)(C)C=C(C#N)C(=O)N1CCC[C@H]1Cc1nc(-c2ccc(Oc3ccccc3)cc2F)c2c(N)nccn12 [Compound 18, (S)-2-(2-((8-amino-1-(2-fluoro-4-phenoxyphenyl)imidazo[1,5-a]pyrazin-3-yl)methyl)pyrrolidine-1-carbonyl)-4-methyl-4-(methyl(oxetan-3-yl)amino)pent-2-enenitrile]
178 nM	23.5 nM	CC(C)(C=C(C#N)C(=O)N1CCC[C@H]1Cc1nc(-c2ccc(Oc3ccccc3)cc2F)c2c(N)nccn12)N1CCN(C2COC2)CC1 [Compound 19, (S)-2-(2-((8-amino-1-(2-fluoro-4-phenoxyphenyl)imidazo[1,5-a]pyrazin-3-yl)methyl)pyrrolidine-1-carbonyl)-4-methyl-4-(4-(oxetan-3-yl)piperazin-1-yl)pent-2-enenitrile]
511 nM	2.5 nM	CC(C)(C=C(C#N)C(=O)N1CCC[C@H]1Cn1nc(-c2ccc(Oc3ccccc3)cc2F)c2c(N)nccc21)N1CCOCC1 [Compound 22, (S)-2-(2-((4-amino-3-(2-fluoro-4-phenoxyphenyl)-1H-pyrazolo[4,3-c]pyridin-1-yl)methyl)pyrrolidine-1-carbonyl)-4-methyl-4-morpholinopent-2-enenitrile]
538 nM	1.6 nM	CC(C)(C=C(C#N)C(=O)N1CCC[C@@H](n2nc(-c3ccc(Oc4ccccc4)cc3F)c3c(N)nccc32)C1)C1CCN(C2COC2)CC1 [Compound 23, (R)-2-(3-(4-amino-3-(2-fluoro-4-phenoxyphenyl)-1H-pyrazolo[4,3-c]pyridin-1-yl)piperidine-1-carbonyl)-4-methyl-4-(1-(oxetan-3-yl)piperidin-4-yl)pent-2-enenitrile]
577 nM	1.7 nM	CC(C)(C=C(C#N)C(=O)N1CCC[C@@H](n2nc(-c3ccc(Oc4ccccc4)cc3F)c3c(N)nccc32)C1)N1CCNC(=O)C1 [Compound 24, (R)-2-(3-(4-amino-3-(2-fluoro-4-phenoxyphenyl)-1H-pyrazolo[4,3-c]pyridin-1-yl)piperidine-1-carbonyl)-4-methyl-4-(3-oxopiperazin-1-yl)pent-2-enenitrile]
367 nM	3 nM	CC(C)(C=C(C#N)C(=O)N1CCC[C@@H](n2nc(-c3ccc(Oc4ccccc4)c(F)c3)c3c(N)nccc32)C1)N1CCN(C2COC2)CC1 [Compound 26, (R)-2-(3-(4-amino-3-(3-fluoro-4-phenoxyphenyl)-1H-pyrazolo[4,3-c]pyridin-1-yl)piperidine-1-carbonyl)-4-methyl-4-(4-(oxetan-3-yl)piperazin-1-yl)pent-2-enenitrile]

Molecule	IC50 (CD69 expression)	IC50 (human recombinant BTK)
(R)-2-(3-(4-amino-3-(2-methyl-4-phenoxyphenyl)-1H-pyrazolo[4,3-c]pyridin-1-yl)piperidine-1-carbonyl)-4-methyl-4-(4-(oxetan-3-yl)piperazin-1-yl)pent-2-enenitrile [Compound 25]	430 nM	4.4 nM
